Test results from ChEMBL document CHEMBL1201862, “PubChem BioAssay data set” (2004).
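In this assay, cells in 96-well plates receive the compound at five concentrations for 48 hours. Endpoints are linearly interpolated between the surrounding concentrations. At the GI50, growth is halved.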 Active and inactive are the calls of the source. Rule as the data show it: active = GI50 up to about 1.1 µM and inactive = higher.

Experiments:
Assay in all cases: inhibition of tumour cell growth, NCI panel, 48 h
OVCAR-3 = system: OVCAR-3
M14 = system: M14
SK-OV-3 = system: SK-OV-3
M19-MEL = system: M19-MEL
A549 = system: A549
IGROV-1 = system: IGROV-1
SK-MEL-5 = system: SK-MEL-5
KM-20L2 = system: KM-20L2
SK-MEL-28 = system: SK-MEL-28
XF498 = system: XF498
HCT-15 = system: HCT-15
SF-539 = system: SF-539
EKVX = system: EKVX
SR = system: SR
786-0 = system: 786-0
DMS-114 = system: DMS-114
ACHN = system: ACHN
U-251 = system: U-251
HL-60 = system: HL-60
BT-549 = system: BT-549

Row | SMILES | GI50 (OVCAR-3) | GI50 (M14) | GI50 (SK-OV-3) | GI50 (M19-MEL) | GI50 (A549) | GI50 (IGROV-1) | GI50 (SK-MEL-5) | GI50 (KM-20L2) | GI50 (SK-MEL-28) | GI50 (XF498) | GI50 (HCT-15) [µM] | GI50 (SF-539) | GI50 (EKVX) | GI50 (SR) | GI50 (786-0) | GI50 (DMS-114) | GI50 (ACHN) | GI50 (U-251) | GI50 (HL-60) | GI50 (BT-549)
1 | Cn1cc2ccccc2c1-c1nc(F)nc(F)n1 | > 100 µM (inactive) | > 100 µM (inactive) | > 100 µM (inactive) | > 100 µM (inactive) | > 100 µM (inactive) | > 100 µM (inactive) | > 100 µM (inactive) | > 100 µM (inactive) | > 100 µM (inactive) | 23.9 µM (inactive) | > 100 | > 100 µM (inactive) | > 100 µM (inactive) | 41.6 µM (inactive) | > 100 µM (inactive) | > 100 µM (inactive) | > 100 µM (inactive) | > 100 µM (inactive) | 45.5 µM (inactive) | –
2 | O=C(O)Cc1ccc2c(c1O)C(=O)c1c(ccc(CC(=O)O)c1O)C2=O | > 100 µM (inactive) | > 100 µM (inactive) | > 100 µM (inactive) | > 100 µM (inactive) | > 100 µM (inactive) | > 100 µM (inactive) | > 100 µM (inactive) | > 100 µM (inactive) | > 100 µM (inactive) | > 100 µM (inactive) | > 100 | > 100 µM (inactive) | > 100 µM (inactive) | > 100 µM (inactive) | > 100 µM (inactive) | > 100 µM (inactive) | > 100 µM (inactive) | > 100 µM (inactive) | > 100 µM (inactive) | –
3 | COc1ccc(CCc2cc(OC)c(OC)c(OC)c2)cc1 | 0.02 µM (active) | 0.0318 µM (active) | 0.0236 µM (active) | < 0.0226 µM (active) | 0.0403 µM (active) | 0.0612 µM (active) | 0.0212 µM (active) | 0.0128 µM (active) | 0.183 µM (active) | < 0.01 µM (active) | 0.0169 | 0.0258 µM (active) | 1.18 µM (inactive) | < 0.01 µM (active) | 0.15 µM (active) | 0.0248 µM (active) | 0.824 µM (active) | 0.0247 µM (active) | 0.014 µM (active) | 2.32 µM (inactive)
4 | COc1cc(C(=O)c2cocc2C(=O)c2ccc3c(c2)OCO3)cc(OC)c1OC | 0.304 µM (active) | 1 µM (active) | 2.49 µM (inactive) | 2.96 µM (inactive) | 5.26 µM (inactive) | 1.5 µM (inactive) | 0.232 µM (active) | 0.596 µM (active) | 1.46 µM (inactive) | 1.34 µM (inactive) | 0.347 | 0.399 µM (active) | 6.64 µM (inactive) | 0.611 µM (active) | 0.57 µM (active) | 0.753 µM (active) | 0.977 µM (active) | 0.537 µM (active) | 0.0946 µM (active) | 0.149 µM (active)
5 | CCCCCC/C=C1\CCC(CN(C)C)C1=O (stereo unspecified) | 6.61 µM (inactive) | 4.73 µM (inactive) | 20.3 µM (inactive) | 2.59 µM (inactive) | 19.8 µM (inactive) | 10.5 µM (inactive) | 14.3 µM (inactive) | 8.73 µM (inactive) | 4.14 µM (inactive) | 3.31 µM (inactive) | 2.44 | 15.1 µM (inactive) | 16 µM (inactive) | 1.85 µM (inactive) | 1.98 µM (inactive) | 4.24 µM (inactive) | 9.64 µM (inactive) | 4.25 µM (inactive) | 1.52 µM (inactive) | 18.9 µM (inactive)
6 | CC1=Nc2c(O)nc(S)nc2NC(c2ccc(Cl)c(Cl)c2)C1 (stereo unspecified) | 17.5 µM (inactive) | 16.9 µM (inactive) | 32.1 µM (inactive) | 18.5 µM (inactive) | 21.1 µM (inactive) | 20.1 µM (inactive) | 23.6 µM (inactive) | 25.6 µM (inactive) | 18.3 µM (inactive) | > 65.8 µM (inactive) | 33.7 | 21.1 µM (inactive) | 28.9 µM (inactive) | > 100 µM (inactive) | 17.7 µM (inactive) | 35.6 µM (inactive) | > 65.2 µM (inactive) | 17.3 µM (inactive) | > 100 µM (inactive) | –
7 | Cc1ccc(C)c(N2C(=O)C(=O)C(c3nc4ccccc4s3)/C(=N/N)C2=O)c1 (stereo unspecified) | > 100 µM (inactive) | > 100 µM (inactive) | > 100 µM (inactive) | > 20.2 µM (inactive) | > 100 µM (inactive) | > 100 µM (inactive) | > 100 µM (inactive) | > 100 µM (inactive) | > 100 µM (inactive) | > 100 µM (inactive) | > 100 | > 100 µM (inactive) | > 100 µM (inactive) | > 100 µM (inactive) | > 100 µM (inactive) | > 100 µM (inactive) | > 100 µM (inactive) | > 100 µM (inactive) | > 100 µM (inactive) | –
